Here are results for 2 compounds from ChEMBL document CHEMBL4706743, “2-Cyanoisonicotinamide Conjugation: A Facile Approach to Generate Potent Peptide Inhibitors of the Zika Virus Protease” (ACS Med Chem Lett, 2021).

This experiment is described as follows: Inhibition of Zika virus NS2B (45 to 96 residues)/N-terminal thrombin cleavage fused and His6-tagged NS3 (1 to 177 residues) protease expressed in Escherichia coli using Bz-Nle-Lys-Lys-Arg-AMC as substrate preincubated for 10 mins followed by substrate addition and measured for 5 mins by fluorophotometric analysis.

The term Ki denotes a measure of affinity in units of concentration, obtained from inhibition or displacement. A higher Ki goes with lower affinity. As for `N=C(N)NCCC[C@@H]1NC(=O)[C@H](CCCCN)NC(=O)CNC(=O)[C@@H]2CSC(=N2)c2cc(ccn2)C(=O)NCCC[C@@H](C(N)=O)NC(=O)[C@H](CCCCN)NC1=O`, the Ki was determined as 1.76 µM.
`N=C(N)NCCC[C@@H]1NC(=O)[C@H](CCCCN)NC(=O)CNC(=O)[C@@H]2CSC(=N2)c2cc(ccn2)C(=O)NCC[C@@H](C(N)=O)NC(=O)[C@H](CCCCN)NC1=O` registered a Ki of 14.3 µM.
